The source of these data is the supplement of paper PMC10307832.

Compound in assay [1]: CCCS(=O)(=O)Nc1ccc(F)c(C(=O)c2c[nH]c3ncc(-c4ccc(Cl)cc4)cc23)c1F [Vemurafenib]
Nature of the assay: relative viability (nuclei count vs DMSO), 5 days (fraction); higher = more cells survive. The essentials: (§1)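 Hoechst staining, done together with fixation and permeabilisation, marked nuclei for 4× imaging and MetaXpress counting. This followed 5 days without medium change after lung cancer cell lines, kept overnight at 37 °C in 1536-well plates, were pinned with five library-drug doses (not always all listed) spaced by √10 on vehicle-anchored plates. Viability is the ratio of treated-well to vehicle-well nuclei, expressed as a median across plates. Plates passed only at control CV below 25% with at least one doubling.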

Compound in assay [2]: Cc1nc(NC(=O)N2CCC[C@H]2C(N)=O)sc1-c1ccnc(C(C)(C)C(F)(F)F)c1 [Alpelisib]
Described as above. The essentials: as §1

Turning to UMC-11, the relative viability in assay [1] (0.03162 µM) came out at 0.923; in assay [1] (0.1 µM), 1.02; in assay [1] (0.3162 µM) it was 0.876; in assay [1] (1 µM), 0.777; in assay [2] (0.04 µM), 0.937; in assay [2] (0.1265 µM), 0.954. Moreover, the relative viability in assay [2] (0.4 µM) worked out at 1.01; in assay [2] (1.265 µM) it was 0.956; in assay [2] (2 µM, anchor plate), 1; in assay [2] (4 µM) it was 0.826.
